pEC50, pIC50, pKi: −log10 of the molar value. Square brackets hold non-standard residues; d marks the D form. Peptide text beside a SMILES is read from it. ξ: configuration not given here. ξGly(octyl) = CCCCCCCCC(N)C(=O)O
Key:
Mu-type opioid receptor [1] = biological target: Mu-type opioid receptor (Cavia porcellus, UniProt P97266); assay: Antagonist activity at guinea pig ileum MOP; type: functional, tissue-based
Mus musculus [2] = organism: Mus musculus; assay: Antinociceptive activity in mouse by tail pressure test; type: functional; conditions: Mus musculus; read-out: ED50
Mus musculus [3] = assay: Antinociceptive activity in mouse administered icv; type: functional
Mus musculus [4] = assay: Antinociceptive activity in Kunming mouse assessed as heat paw withdrawal measured after 10 secs administered icv; type: functional; conditions: time 10 sec, 10 s
[5] = biological target: T1, Delta-type opioid receptor (Homo sapiens, UniProt P41143); assay: Binding affinity to DOP (unknown origin)
T1 sequence (P41143 whole entry): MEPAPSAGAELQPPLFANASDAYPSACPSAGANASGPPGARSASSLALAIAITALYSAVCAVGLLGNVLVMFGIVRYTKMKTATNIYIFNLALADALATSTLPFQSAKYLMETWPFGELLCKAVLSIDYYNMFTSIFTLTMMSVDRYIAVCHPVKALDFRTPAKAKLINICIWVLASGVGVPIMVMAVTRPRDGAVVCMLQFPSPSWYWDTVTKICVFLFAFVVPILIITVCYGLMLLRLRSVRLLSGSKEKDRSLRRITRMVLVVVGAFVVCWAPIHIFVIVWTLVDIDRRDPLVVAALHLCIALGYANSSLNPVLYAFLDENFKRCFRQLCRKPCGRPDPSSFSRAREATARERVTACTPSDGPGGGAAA

Mu-type opioid receptor [6] = biological target: T2, Mu-type opioid receptor (Homo sapiens, UniProt P35372); assay: Binding affinity to MOP (unknown origin)
T2 sequence (P35372 whole entry): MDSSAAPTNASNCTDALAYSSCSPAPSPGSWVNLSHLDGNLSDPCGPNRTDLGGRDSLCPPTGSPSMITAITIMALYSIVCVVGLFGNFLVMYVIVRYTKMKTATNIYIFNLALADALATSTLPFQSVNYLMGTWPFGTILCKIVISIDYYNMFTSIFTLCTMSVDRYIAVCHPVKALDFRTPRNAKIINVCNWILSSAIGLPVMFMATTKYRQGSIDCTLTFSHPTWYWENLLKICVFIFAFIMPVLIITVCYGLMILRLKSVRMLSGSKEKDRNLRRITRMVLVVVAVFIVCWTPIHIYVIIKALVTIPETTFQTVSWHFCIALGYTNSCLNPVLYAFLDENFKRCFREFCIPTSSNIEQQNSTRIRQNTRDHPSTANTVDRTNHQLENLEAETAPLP

[7] = Stability in mouse serum assessed as half life; type: ADME, cell-free
[8] = Stability in rat brain homogenate assessed as half life; type: ADME, tissue-based
Mu-type opioid receptor [9] = biological target: Mu-type opioid receptor (Mus musculus, UniProt P42866); assay: Antagonist activity at mouse vas deferns MOP; type: functional
Mu-type opioid receptor (Mus musculus, UniProt P42866), sequence (P42866 whole entry): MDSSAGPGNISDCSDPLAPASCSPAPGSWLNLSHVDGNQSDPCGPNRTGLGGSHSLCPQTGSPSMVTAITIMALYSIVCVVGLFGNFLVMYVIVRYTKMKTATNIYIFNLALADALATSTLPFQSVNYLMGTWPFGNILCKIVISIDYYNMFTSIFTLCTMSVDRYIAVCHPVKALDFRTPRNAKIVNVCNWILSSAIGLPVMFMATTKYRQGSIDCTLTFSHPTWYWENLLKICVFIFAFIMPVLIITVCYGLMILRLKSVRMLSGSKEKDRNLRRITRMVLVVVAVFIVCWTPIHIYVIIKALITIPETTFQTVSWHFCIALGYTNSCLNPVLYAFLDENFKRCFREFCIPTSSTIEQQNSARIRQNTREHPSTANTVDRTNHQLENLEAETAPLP

Rattus norvegicus [10] = assay: Antinociceptive activity in rat administered icv by tail pressure test relative to control; type: functional; parameters: concentration or dose not given beside the values
[11] = Stability in rat brain homogenate assessed as compound remaining measured after 90 mins relative to control; type: ADME, tissue-based; conditions: read-out: Stability
Mus musculus [12] = assay: Antinociceptive activity in Swiss albino mouse assessed tail flick response in warm water administered icv; type: functional
[13] = Degradation half life in rat brain homogenate; type: ADME, tissue-based
Mus musculus [14] = assay: Antinociceptive activity in icv dosed C57BL/6J mouse assessed as tail withdrawal latency from warm water; type: functional
[15] = biological target: T3, Kappa-type opioid receptor (Homo sapiens, UniProt P41145); assay: Antagonist activity at human KOP stably expressed in CHO cell membrane assessed as [35S]GTPgammaS binding; type: functional, cell membranes
T3 sequence (P41145 whole entry): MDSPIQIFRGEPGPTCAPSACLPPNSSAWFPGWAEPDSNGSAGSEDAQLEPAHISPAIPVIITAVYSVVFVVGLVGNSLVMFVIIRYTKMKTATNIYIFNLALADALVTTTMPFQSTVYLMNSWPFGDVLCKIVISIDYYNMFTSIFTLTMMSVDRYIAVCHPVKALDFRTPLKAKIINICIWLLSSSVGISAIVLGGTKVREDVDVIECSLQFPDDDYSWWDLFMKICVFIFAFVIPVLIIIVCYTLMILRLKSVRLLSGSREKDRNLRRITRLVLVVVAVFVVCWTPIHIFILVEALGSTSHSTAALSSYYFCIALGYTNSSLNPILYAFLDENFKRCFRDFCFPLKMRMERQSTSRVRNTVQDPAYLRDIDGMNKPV

[16] = biological target: Kappa-type opioid receptor (Rattus norvegicus, UniProt P34975); assay: Displacement of [3H]diprenorphine from rat KOP stably expressed in CHO cell membrane; type: cell membranes
Kappa-type opioid receptor (Rattus norvegicus, UniProt P34975), sequence (P34975 whole entry): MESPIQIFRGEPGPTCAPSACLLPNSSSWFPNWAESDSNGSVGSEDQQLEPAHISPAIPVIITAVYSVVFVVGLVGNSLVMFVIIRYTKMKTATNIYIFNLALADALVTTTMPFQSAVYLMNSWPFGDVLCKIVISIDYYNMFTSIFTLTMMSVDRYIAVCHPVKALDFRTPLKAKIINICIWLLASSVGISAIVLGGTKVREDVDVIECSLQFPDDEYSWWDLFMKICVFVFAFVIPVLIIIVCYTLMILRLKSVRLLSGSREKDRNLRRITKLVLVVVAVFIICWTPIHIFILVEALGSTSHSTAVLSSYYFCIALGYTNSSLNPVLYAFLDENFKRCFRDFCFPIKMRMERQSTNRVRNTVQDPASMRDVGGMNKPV

Mu-type opioid receptor [17] = biological target: T2, Mu-type opioid receptor; assay: Antagonist activity at human MOP stably expressed in CHO cell membrane assessed as [35S]GTPgammaS binding; type: functional, cell membranes
[18] = biological target: T3, Kappa-type opioid receptor; assay: Inhibition of KOP (unknown origin)
[19] = biological target: T1, Delta-type opioid receptor; assay: Inhibition of DOP (unknown origin)
[20] = biological target: Delta-type opioid receptor (Mus musculus, UniProt P32300); assay: Displacement of [3H]DPDPE from mouse DOP stably expressed in CHO cell membrane; type: cell membranes
Delta-type opioid receptor (Mus musculus, UniProt P32300), sequence (P32300 whole entry): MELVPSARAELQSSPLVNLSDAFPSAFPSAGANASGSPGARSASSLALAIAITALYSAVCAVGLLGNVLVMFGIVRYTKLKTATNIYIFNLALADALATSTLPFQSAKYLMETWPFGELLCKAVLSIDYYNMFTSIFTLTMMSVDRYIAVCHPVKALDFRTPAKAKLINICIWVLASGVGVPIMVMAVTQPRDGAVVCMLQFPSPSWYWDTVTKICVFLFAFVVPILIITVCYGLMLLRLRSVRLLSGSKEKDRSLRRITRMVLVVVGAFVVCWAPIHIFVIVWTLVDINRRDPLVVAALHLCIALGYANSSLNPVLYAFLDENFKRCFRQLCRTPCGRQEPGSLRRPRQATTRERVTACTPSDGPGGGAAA

Rattus norvegicus [21] = assay: Antinociceptive activity in Sprague-Dawley rat assessed as tail flick response in warm water administered iv; type: functional
Mu-type opioid receptor [22] = biological target: T2, Mu-type opioid receptor; assay: Agonist activity at MOP in human SH-SY5Y cells assessed as forskolin stimulated cAMP accumulation incubated for 30 mins by Biotrak-EIA kit method; type: functional, cell-based
[23] = biological target: T3, Kappa-type opioid receptor; assay: Binding affinity to human KOP stably expressed in CHO cell membrane assessed as [35S]GTPgammaS binding; type: cell membranes; conditions: filed as antagonist
Mus musculus [24] = assay: Antinociceptive activity in po dosed C57BL/6J mouse assessed as tail withdrawal latency from warm water; type: functional
Mu-type opioid receptor [25] = biological target: T2, Mu-type opioid receptor; assay: Displacement of [3H]DAMGO from MOP (unknown origin) stably expressed in CHO cell membrane incubated for 90 mins by scintillation counter analysis; type: cell membranes
[26] = biological target: T3, Kappa-type opioid receptor; assay: Displacement of [3H]diprenorphine from KOP (unknown origin) stably expressed in CHO cell membrane incubated for 90 mins by scintillation counter analysis; type: cell membranes
[27] = biological target: T1, Delta-type opioid receptor; assay: Displacement of [3H]DPDPE from DOP (unknown origin) stably expressed in CHO cell membrane incubated for 90 mins by scintillation counter analysis; type: cell membranes
Mu-type opioid receptor [28] = biological target: T2, Mu-type opioid receptor; assay: Agonist activity at human MOP expressed in CHO-K1 cell membrane assessed as [35S]GTPgammaS binding relative to control; type: functional, cell membranes; conditions: filed as agonist
Mu-type opioid receptor [29] = biological target: T2, Mu-type opioid receptor; assay: Agonist activity at human MOP expressed in CHO-K1 cell membrane assessed as [35S]GTPgammaS binding; type: functional, cell membranes
[30] = biological target: T1, Delta-type opioid receptor; assay: Displacement of [3H]DPDPE from human DOP expressed in CHO-K1 cell membrane incubated for 60 mins by Microscint-counting analysis; type: cell membranes
Mu-type opioid receptor [31] = biological target: T2, Mu-type opioid receptor; assay: Displacement of [3H]DAMGO from human MOP expressed in CHO-K1 cell membrane incubated for 60 mins by Microscint-counting analysis; type: cell membranes
Rattus norvegicus [32] = assay: Antinociceptive activity in Sprague-Dawley rat assessed as tail flick response in warm water administered icv; type: functional
[33] = Half life in mouse liver microsomes; type: ADME, Microsome
[34] = Toxicity in icv dosed C57BL/6J mouse assessed as antinociceptive activity tolerance; type: organism-based; conditions: in vivo, icv_or_intrathecal

Mu-type opioid receptor (Cavia porcellus, UniProt P97266), sequence (P97266 whole entry): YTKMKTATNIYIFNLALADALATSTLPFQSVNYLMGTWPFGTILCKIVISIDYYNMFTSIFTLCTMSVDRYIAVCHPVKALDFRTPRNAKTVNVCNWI

N=C(N)NCCC[C@@H](NC(=O)[C@@H](N)Cc1ccc(O)cc1)C(=O)N[C@@H](Cc1ccccc1)C(=O)NCC(=O)N[C@@H](Cc1ccc(O)cc1)C(=O)N1CCC[C@H]1C(=O)N[C@@H](CO)C(N)=O
pIC50 (Mu-type opioid receptor [1]): 7.05
ED50 (Mus musculus [2]): 3.5 mg/kg
ED50 (Mus musculus [3]): 23 pmol

CC(C)(C)OC(=O)[C@H](Cc1ccccc1)NC(=O)[C@H](Cc1ccccc1)NC(=O)[C@@H]1CCCN1C(=O)[C@@H](N)Cc1ccc(O)cc1
ED50 (Mus musculus [4]): 3.2 nmol
pKi [5]: 6.61
pKi (Mu-type opioid receptor [6]): 7.30
half-life [7]: 46 min
half-life [8]: 72.2 min

C[C@@H](NC(=O)[C@@H](N)Cc1ccc(O)cc1)C(=O)N[C@@H](Cc1ccccc1)C(=O)NCC(=O)N[C@@H](Cc1ccc(O)cc1)C(N)=O (H-Y[dA]FGY-NH2)
pIC50 (Mu-type opioid receptor [1]): 8.54
pIC50 (Mu-type opioid receptor [9]): 7.62
pKi [5]: 7.06
pKi (Mu-type opioid receptor [6]): 9.01
Activity (Rattus norvegicus [10]): 27%

NC(=O)[C@H](Cc1ccccc1)NC(=O)[C@H](Cc1ccccc1)NC(=O)[C@@H]1CCCN1C(=O)[C@@H](N)Cc1ccc(O)cc1 [ENDOMORPHIN 2]
remaining at […] [11]: 0%
ED50 (Mus musculus [12]): 6.88 nmol
half-life [13]: 0.75 min
half-life [7]: 8.2 min
half-life [8]: 15.9 min

Cc1cc(O)cc(C)c1C[C@H](N)C(=O)N1Cc2ccccc2C[C@H]1C(=O)N[C@@H](Cc1ccccc1)[C@@H](O)C(=O)N[C@@H](Cc1ccccc1)C(N)=O
half-life [13]: 120 min

C[C@@H]1NC(=O)[C@@H](Cc2c[nH]c3ccccc23)NC(=O)[C@H](Cc2ccccc2)NC(=O)[C@H]2CCCN2C1=O
ED50 (Mus musculus [14]): 1.99 nmol
pIC50 [15]: 9.09
pKi [16]: 8.51
pIC50 (Mu-type opioid receptor [17]): 8.09

CC[C@@H]1CN2CCc3c([nH]c4cccc(OC)c34)[C@H]2C[C@@H]1/C(=C\OC)C(=O)OC
pIC50 [18]: 5.00
pKi [5]: < 5.00
pIC50 [19]: < 5.00

C[C@H]1NC(=O)[C@H](Cc2ccccc2)NC(=O)[C@H]2CCCN2C(=O)[C@H](Cc2ccccc2)NC1=O
pKi [20]: 5.00
ED50 (Mus musculus [14]): 0.28 nmol
pIC50 [15]: 6.04
pKi [16]: 5.76
pIC50 (Mu-type opioid receptor [17]): 5.96

CCCCCCCCC(N)C(=O)N[C@@H](Cc1ccc(O)cc1)C(=O)N1CCC[C@H]1C(=O)N[C@@H](Cc1c[nH]c2ccccc12)C(=O)N[C@@H](Cc1ccccc1)C(N)=O (some centres undefined) (H-[ξGly(octyl)]YPWF-NH2)
ED50 (Rattus norvegicus [21]): 1.2 µmol/kg
pEC50 (Mu-type opioid receptor [22]): 7.50

O=C1N[C@H](Cc2c[nH]c3ccccc23)C(=O)N[C@@H](Cc2ccccc2)C(=O)N2CCC[C@@H]2C(=O)N[C@H]1Cc1ccccc1
pKi [20]: 5.38
Kb [23]: 20.2 nM
ED50 (Mus musculus [24]): 60 mg/kg

C[C@@H]1NC(=O)[C@H]2CCCN2C(=O)[C@H](Cc2ccccc2)NC(=O)[C@H](Cc2c[nH]c3ccccc23)NC1=O
pKi (Mu-type opioid receptor [25]): 6.27
pKi [26]: 6.18
pKi [27]: < 5.00

CCOC(=O)[C@H](Cc1ccccc1)NC(=O)[C@H](Cc1ccccc1)NC(=O)[C@@H]1CCCN1C(=O)[C@@H](N)Cc1ccc(O)cc1
ED50 (Mus musculus [4]): 8.4 nmol
pKi [5]: 5.53
pKi (Mu-type opioid receptor [6]): 7.83
half-life [7]: 29.9 min
half-life [8]: 58.6 min

C[C@@H]1C(=O)N[C@@H](Cc2ccccc2)C(=O)N[C@@H](Cc2c[nH]c3ccccc23)C(=O)N[C@@H](Cc2ccccc2)C(=O)N1C
ED50 (Mus musculus [14]): 2.43 nmol
pKi (Mu-type opioid receptor [25]): 6.85
pKi [26]: 6.95
pKi [27]: 5.86

NC(=O)[C@@H]1CC(=O)NCCCC[C@@H](NC(=O)[C@@H](N)Cc2ccc(O)cc2)C(=O)N[C@@H](Cc2c[nH]c3ccccc23)C(=O)N[C@@H](Cc2ccccc2)C(=O)N1
Emax (Mu-type opioid receptor [28]): 100%
pEC50 (Mu-type opioid receptor [29]): 9.03
pKi [30]: 7.08
pKi (Mu-type opioid receptor [31]): 9.31
ED50 (Rattus norvegicus [32]): 0.2 nmol

C[C@@H](NC(=O)[C@@H](N)Cc1ccc(O)cc1)C(=O)N[C@@H](Cc1ccccc1)C(=O)NCC(=O)N[C@@H](Cc1ccc(O)cc1)C(=O)N1CCC[C@H]1C(=O)N[C@@H](CO)C(N)=O
Activity (Rattus norvegicus [10]): <0.05%

N=C(N)NCCC[C@@H](NC(=O)[C@@H](N)Cc1ccc(O)cc1)C(=O)N[C@@H](Cc1ccccc1)C(=O)NCC(=O)N[C@@H](Cc1ccc(O)cc1)C(N)=O
pIC50 (Mu-type opioid receptor [1]): 6.80
ED50 (Mus musculus [3]): 20.2 pmol

O=C1N[C@@H](Cc2ccccc2)C(=O)N2CCC[C@@H]2C(=O)N[C@@H](Cc2ccccc2)C(=O)N[C@H]1Cc1c[nH]c2ccccc12
ED50 (Mus musculus [14]): 1.74 nmol
half-life [33]: 49 min
ED50 [34]: 5.23 nmol
